# Measurements published in patent US20230405151A1, “USE OF IRAK4 MODULATORS FOR GENE THERAPY” (Genzyme Corporation, priority 2022, published 2023).
# System: C57BL/6J mice injected with AAV (LacZ transgene)
# Assay: In vivo mouse AAV model: CD8 TEM and lacZ tetramer staining of PBMCs and splenocytes
# Conditions: chow 100 mg/kg from 15 days prior to AAV, versus AAV group
# Description: In-vivo mice experiments. C57BL/6J mice were purchased from Jackson Laboratories. 6-8-week male mice were divided into 3 groups—PBS group, AAV group and AAV+IRAK4 group all groups with 10 mice each. Zimlovisertib IRAK4 inhibitor (Synonyms: PF-06650833) Cat. No.: HY-19836 (MedChemExpress) was mixed with mouse chow Catalog #2016, Teklad Global 16% Protein Rodent Diets https://www.inotivco.com/rodent-natural-ingredient-2016-diets at a dose of 30 mg/kg. AAV+IRAK4 group was fed the chow with Zimlovisertib IRAK4 inhibitor 15 days prior to AAV injection whereas PBS and AAV group were fed with mouse chow Catalog #2016, Teklad Global 16% Protein Rodent Diets https://www.inotivco.com/rodent-natural-ingredient-2016-diets. PBS group mice were injected intramuscularly with 100 ul PBS, AAV group was injected intramuscularly with 1e11 vg per quadricep muscle of both legs, 100 ul volume.
# The same experiment design was followed with n=6 mice in each group PBS group, AAV group and AAV+IRAK4 degrader PROTAC IRAK4 degrader-1 Cat. No.: HY-129966 (MedChemExpress) that was mixed with chow at 100 mg/kg and fed to mice 15 days prior to AAV injection. […] AAV capsid used in the study had LacZ transgene. All animal experiments were conducted in accordance with the Institutional Animal Care and Use Committees at Sanofi, Framingham. Submandibular bleeds were performed weekly, and necropsy was performed three weeks post AAV injection.
# PBMC isolation and surface staining. 120 ul blood was collected in K2EDTA coated tubes. The blood was mixed with DBPS at 1:1 ration and pipetted into a separate tube containing Ficoll (GE17-5442-02) to ensure no mixing of the blood and Ficoll phases. The mixture was centrifuged at 2000 RPM for 25 minutes at room temperature (9 acceleration and no braking). The buffy coat containing the peripheral blood mononuclear cells (PBMCs) was collected, transferred to a new tube, and centrifuged for five minutes at 400 RCF. PBMCs were washed three times with phosphate buffered saline (PBS) containing 1% fetal bovine serum (FBS) or fetal calf serum (FCS) and counted. The PBMC cells thus obtained were stained with different antibodies to quantify percentage of different immune cell subsets in peripheral blood.
# PBMC CD8 TEM and lacZ tetramer staining. The PBMC was isolated from ˜120 μl of mouse blood, and it was transferred to a 96-well U-bottom plate. […]
compound,measurement,setting,value
Cn1c(=O)n(C2CCC(=O)NC2=O)c2cccc(C#CCOC3CCN(C[C@H]4CC[C@H](n5cc(NC(=O)c6cnn7ccc(N8C[C@H]9C[C@@H]8CO9)nc67)c(C(F)F)n5)CC4)CC3)c21 (some centres unmarked) [KT-474],LacZ tetramer positive (transgene LacZ specific CD8 T) cells in PBMCs,14 days post AAV injections,reduced significantly
same,LacZ tetramer positive (transgene LacZ specific CD8 T) cells in spleen,21 days post AAV injections,reduced significantly
